Assay results reported in US20250163057A1, “DCN-1 MODULATING COMPOUNDS AND METHODS OF USE THEREOF” (Cellarity, Inc., priority 2023, published 2025).
pIC50: −log10 of the molar value. Read-outs that look alike come from different tables or passages of the source.

Tests used:
[1] = biological target: DCN1 (DCUND1) protein PONY domain (Homo sapiens (Human), UniProt Q96GG9); experiment: TR-FRET assay, DCN1 binding with FAM-labeled probe; conditions: for IC50: TR FRET IC50 1 hr (nM)
Method in brief: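 First, the E. coli-derived PONY domain was biotinylated and paired with streptavidin Tb cryptate. Compounds in 0.1% DMSO were then added to DCN1 and FAM-probe (5 nM/20 nM, or 0.31 nM/900 nM total with 800 nM unlabelled) in TritonX, 200 mM NaCl buffer. Finally, TR-FRET ratios were recorded at 1, 5 and 24 hrs.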

[2] = system: Cullin-3 (CUL3) neddylation; experiment: AlphaLISA assay for Cullin-3 (CUL3) neddylation in TF 1 cells; type: cell-based; conditions: 3 hours treatment
Procedure: An AiphaLISA assay was performed to evaluate the ability of the compounds to suppress neddylation, which is downstream from DCN-1 and DCN-2. A stronger inhibition of DCN-1 and DCN-2 is expected to result in a suppression of neddylation as shown by a lower AlphaLISA signal. The AlphaLISA assay for detecting Cullin-3 (CUL3) neddylation was performed according to manufacturer instructions (Revvity, Hopkinton, MA). Briefly, TF 1 cells (ATCC) were plated in Iscove's Modified Dulbecco's Medium (IMIDM) without supplements in 384-well plates. These cells were treated with […] for 3 hours before lysing them with AlphaLISA lysis buffer, 5× (Revvity). To detect the level of CUL3 neddylation, biotinylated anti-NEDD8 antibody, was added followed by AlphaLISA Acceptor beads conjugated with anti-CUL3 antibody. After overnight incubation, Streptavidin-coated Alpha Donor beads were added and incubated for 1 hour. The AlphaLISA signal was then read on a VICTOR Nivo Multimode Microplate Reader (Revvity, Hopkinton, MA). The positive control was 1 μM DI-1548, which is reported to reduce CUL3 neddylation, also referred to as C-1 in Example 41 (Zhou et al. Nature Comm. 2021). The neddylation signal was normalized such that the percent inhibition is 0% for vehicle control and 100% for positive control. The dose-response curves were fitted with the Hill equation to obtain IC50 values (Graphpad Prism).

[3] = 24 hr after treatment with compound, read-out: TR FRET IC50 24 hr
[4] = 1 hr after treatment with compound
[5] = read-out: TR FRET IC50 1 hr, 1 hr after treatment with compound

DCN1 (DCUND1) protein PONY domain, sequence (Q96GG9 60-248): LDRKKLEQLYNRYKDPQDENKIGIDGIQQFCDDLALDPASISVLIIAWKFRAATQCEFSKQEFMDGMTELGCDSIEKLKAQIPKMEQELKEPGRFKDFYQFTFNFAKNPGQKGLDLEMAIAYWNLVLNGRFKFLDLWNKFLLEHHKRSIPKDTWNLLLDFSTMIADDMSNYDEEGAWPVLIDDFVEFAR

CCN1C(=O)[C@@H](NC(=O)N2CCC[C@@H](C(F)(F)F)C2)C(c2ccc(F)cc2)c2c(C(=O)N3CCC[C@H]3C#N)nn(-c3ccccc3)c21 (single isomer, unassigned) [Compound I-464]
pIC50 [1, 3]: 5.52 to 6.00 | IC50 [1, 4]: 1000 to 3000 nM | pIC50 ([2]; Homo sapiens, TF-1, 3 h): < 6.00

CCN1C(=O)[C@@H](NC(=O)c2cccc(C(F)(F)F)c2)[C@@H](c2ccc(F)cc2)c2c(C(=O)N3[C@H](C#N)C[C@H]4C[C@H]43)nn([C@@H]3CCOC3)c21 (single isomer, unassigned) [Compound I-482]
pIC50 [1, 3]: ≥ 6.70 | pIC50 [1, 5]: ≥ 6.70 | pIC50 [2]: ≥ 7.00

CCN1C(=O)[C@@H](NC(=O)N2CCC[C@H](C(F)(F)F)C2)[C@@H](c2ccc(F)cc2)c2c(C(=O)N3CCC[C@H]3C#N)nn(-c3ccccc3)c21 (single isomer, unassigned) [Compound I-501]
pIC50 [1, 3]: 6.00 to 6.70 | IC50 [1, 4]: 1000 to 3000 nM | pIC50 ([2]; Homo sapiens, TF-1, 3 h): < 6.00

CCN1C(=O)[C@@H](NC(=O)c2cccc(C(F)(F)F)c2)[C@@H](C2CC2)c2c(C(=O)N3CCNC[C@@H]3C#N)nn(-c3ccccc3)c21 (single isomer, unassigned) [Compound I-518]
pIC50 [1, 3]: ≥ 6.70 | IC50 [1, 4]: 200 to 1000 nM | pIC50 ([2]; Homo sapiens, TF-1, 3 h): ≥ 7.00

CCN1C(=O)[C@H](NC(=O)c2cccc(C(F)(F)F)c2)[C@H](c2ccc(F)cc2)c2c(C(=O)N3[C@H](C#N)C[C@H]4C[C@H]43)nn([C@@H]3CCOC3)c21 (single isomer, unassigned) [Compound I-562]
pIC50 [1, 3]: 5.52 to 6.00 | IC50 [1, 4]: 1000 to 3000 nM | pIC50 [2]: < 6.00

CCN1C(=O)[C@@H](NC(=O)c2cccc(C(F)(F)F)c2)[C@@H](c2ccc(F)cc2)c2c(C(=O)N3[C@H](C#N)C[C@H]4C[C@H]43)nn([C@@H]3CCOC3)c21 (single isomer, unassigned) [Compound I-583]
pIC50 [1, 3]: 5.52 to 6.00 | IC50 [1, 4]: 1000 to 3000 nM | pIC50 [2]: < 6.00

CCN1C(=O)[C@@H](NC(=O)c2nccc(C(F)(F)F)n2)[C@H](c2ccc(F)cc2)c2c(CC(=O)N[C@H](C)C#N)nn(-c3ccccc3)c21 (single isomer, unassigned) [Compound I-607]
pIC50 [1, 3]: 5.52 to 6.00 | IC50 [1, 4]: 200 to 1000 nM | pIC50 ([2]; Homo sapiens, TF-1, 3 h): < 6.00

CCN1C(=O)[C@H](NC(=O)c2cccc(C(F)(F)F)c2)[C@H](c2ccc(F)cc2)c2c(C(=O)N3[C@H](C#N)C[C@H]4C[C@H]43)nn([C@@H]3CCOC3)c21 (single isomer, unassigned) [Compound I-704]
pIC50 [1, 3]: ≥ 6.70 | pIC50 [1, 5]: 5.52 to 6.00 | pIC50 [2]: 6.00 to 7.00

CCN1C(=O)[C@H](NC(=O)c2cccc(C(F)(F)F)c2)[C@H](c2ccc(F)cc2)c2c(C(=O)N(CC#N)CC(=O)OC)nn(-c3ccccc3)c21 (stereo in doubt) [Compound I-406]
pIC50 [1, 3]: ≥ 6.70 | IC50 [1, 4]: 200 to 1000 nM | pIC50 ([2]; Homo sapiens, TF-1, 3 h): 6.00 to 7.00

CCN1C(=O)C(NC(=O)c2cccc(C(F)(F)F)c2)[C@@H](C2CC2)c2c(C(=O)N3CC(NC)CC3C#N)nn(C3CCOCC3)c21 (stereo in doubt) [Compound I-420, N-[(4S,5S)-3-[(2S,4R*)-2-cyano-4-(methylamino)pyrrolidine-1-carbonyl]-4-cyclopropyl-7-ethyl-1-(oxan-4-yl)-6-oxo-4H,5H-pyrazolo[3,4-b]pyridin-5-yl]-3-(trifluoromethyl)benzamide]
pIC50 [1, 3]: 5.52 to 6.00 | IC50 [1, 4]: 1000 to 3000 nM | pIC50 ([2]; Homo sapiens, TF-1, 3 h): < 6.00

CCN1C(=O)[C@H](NC(=O)c2cccc(C(F)(F)F)c2)[C@H](c2ccc(F)cc2)c2c(C(=O)N(CC#N)CCC(=O)OC)nn(-c3ccccc3)c21 (stereo in doubt) [Compound I-461]
pIC50 [1, 3]: 5.52 to 6.00 | IC50 [1, 4]: 1000 to 3000 nM | pIC50 ([2]; Homo sapiens, TF-1, 3 h): < 6.00

C=C(CN1CCC1)C(=O)NCc1nn(-c2ccccc2)c2c1[C@H](C1CC1)[C@H](NC(=O)c1cccc(C(F)(F)F)c1)C(=O)N2CC (stereo in doubt) [Compound I-462]
pIC50 [1, 3]: ≥ 6.70 | pIC50 [1, 5]: ≥ 6.70 | pIC50 ([2]; Homo sapiens, TF-1, 3 h): ≥ 7.00

CCN(CC#N)C(=O)c1nn(-c2ccccc2)c2c1[C@@H](c1ccc(F)cc1)[C@@H](NC(=O)c1cccc(C(F)(F)F)c1)C(=O)N2CC (stereo in doubt) [Compound I-531]
pIC50 [1, 3]: ≥ 6.70 | IC50 [1, 4]: 1000 to 3000 nM | pIC50 ([2]; Homo sapiens, TF-1, 3 h): 6.00 to 7.00

CCN1C(=O)[C@@H](NC(=O)c2cccc(C(F)(F)F)c2)[C@@H](c2ccc(F)cc2)c2c(C(=O)N3CCC[C@H]3C#N)nn(-c3cccc(OCCCN4CC5(COC5)C4)c3)c21 (stereo in doubt) [Compound I-615]
pIC50 [1, 3]: 6.00 to 6.70 | IC50 [1, 4]: 1000 to 3000 nM | pIC50 ([2]; Homo sapiens, TF-1, 3 h): < 6.00

C=C(CN1CCC1)C(=O)NCc1nn(-c2ccccc2)c2c1[C@@H](C1CC1)[C@@H](NC(=O)c1cccc(C(F)(F)F)c1)C(=O)N2CC (stereo in doubt) [Compound I-636]
pIC50 [1, 3]: 5.52 to 6.00 | IC50 [1, 4]: 1000 to 3000 nM | pIC50 ([2]; Homo sapiens, TF-1, 3 h): < 6.00

CCN1C(=O)[C@H](NC(=O)c2cccc(C(F)(F)F)c2)[C@H](c2ccc(F)cc2)c2c(C(=O)N(CC#N)CCO)nn(-c3ccccc3)c21 (stereo in doubt) [Compound I-639]
pIC50 [1, 3]: 5.52 to 6.00 | IC50 [1, 4]: 1000 to 3000 nM | pIC50 ([2]; Homo sapiens, TF-1, 3 h): < 6.00

CCN1C(=O)[C@H](NC(=O)c2cccc(C(F)(F)F)c2)[C@H](c2ccc(F)cc2)c2c(C(=O)N(CC#N)C3CC3)nn(-c3ccccc3)c21 (stereo in doubt) [Compound I-674]
pIC50 [1, 3]: 5.52 to 6.00 | IC50 [1, 4]: 1000 to 3000 nM | pIC50 ([2]; Homo sapiens, TF-1, 3 h): < 6.00

C=C(CN1CCC(C)(O)C1)C(=O)NCc1nn(-c2ccccc2)c2c1[C@H](c1ccc(F)cc1)[C@H](NC(=O)c1cccc(C(F)(F)F)c1)C(=O)N2CC (stereo partly drawn) [Compound I-25]
pIC50 [1, 3]: ≥ 6.70 | pIC50 [1, 5]: ≥ 6.70 | pIC50 ([2]; Homo sapiens, TF-1, 3 h): ≥ 7.00

C=C(CN1CC2CCC(C1)O2)C(=O)NCc1nn(-c2ccccc2)c2c1[C@H](c1ccc(F)cc1)[C@H](NC(=O)c1cccc(C(F)(F)F)c1)C(=O)N2CC [Compound I-50]
pIC50 [1, 3]: ≥ 6.70 | pIC50 [1, 5]: ≥ 6.70 | pIC50 ([2]; Homo sapiens, TF-1, 3 h): ≥ 7.00

C=C(CN1CC2CC(C1)O2)C(=O)NCc1nn(-c2ccccc2)c2c1[C@H](c1ccc(F)cc1)[C@H](NC(=O)c1cccc(C(F)(F)F)c1)C(=O)N2CC [Compound I-56]
pIC50 [1, 3]: ≥ 6.70 | pIC50 [1, 5]: ≥ 6.70 | pIC50 ([2]; Homo sapiens, TF-1, 3 h): ≥ 7.00

CCN1C(=O)[C@H](NC(=O)c2cccc(C(F)(F)F)c2)[C@H](c2ccc(F)cc2)c2c(C(=O)N[C@@H](C)C#N)nn(-c3ccccc3)c21 [Compound I-255, (4R,5R)—N—((S)-1-cyanoethyl)-7-ethyl-4-(4-fluorophenyl)-6-oxo-1-phenyl-5-(3-(trifluoromethyl)benzamido)-4,5,6,7-tetrahydro-1H-pyrazolo[3,4-b]pyridine-3-carboxamide]
pIC50 [1, 3]: 5.52 to 6.00 | IC50 [1, 4]: 1000 to 3000 nM | pIC50 ([2]; Homo sapiens, TF-1, 3 h): < 6.00

CCN1C(=O)[C@@H](NC(=O)c2cccc(C(F)(F)F)c2)[C@@H](c2ccc(F)cc2)c2c(CNC/C=C/C(=O)N3CCCC3)nn(-c3ccccc3)c21 [Compound I-400]
pIC50 [1, 3]: ≥ 6.70 | pIC50 [1, 5]: ≥ 6.70 | pIC50 ([2]; Homo sapiens, TF-1, 3 h): 6.00 to 7.00

CCN1C(=O)[C@H](NC(=O)c2cccc(C(F)(F)F)c2)[C@H](c2ccc(F)cc2)c2c(C(=O)N3CCC[C@H]3C#N)nn(C3CCOCC3)c21 [Compound I-401]
pIC50 [1, 3]: 5.52 to 6.00 | IC50 [1, 4]: 1000 to 3000 nM | pIC50 ([2]; Homo sapiens, TF-1, 3 h): < 6.00

CCN1C(=O)[C@@H](NC(=O)c2nccc(C(F)(F)F)n2)[C@H](c2ccc(F)cc2)c2c(CN(C)C(=O)CC#N)nn(-c3ccccc3)c21 [Compound I-402, N-((4R,5S)-3-((2-cyano-N-methylacetamido)methyl)-7-ethyl-4-(4-fluorophenyl)-6-oxo-1-phenyl-4,5,6,7-tetrahydro-1H-pyrazolo[3,4-b]pyridin-5-yl)-4-(trifluoromethyl)pyrimidine-2-carboxamide]
pIC50 [1, 3]: 5.52 to 6.00 | IC50 [1, 4]: 1000 to 3000 nM | pIC50 ([2]; Homo sapiens, TF-1, 3 h): 6.00 to 7.00

CCN1C(=O)[C@@H](NC(=O)c2cccc(C(F)(F)F)c2)[C@H](c2ccc(F)cc2)c2c(CN(C)C(=O)CC#N)nn(-c3ccccc3)c21 [Compound I-403]
pIC50 [1, 3]: 6.00 to 6.70 | IC50 [1, 4]: 200 to 1000 nM | pIC50 ([2]; Homo sapiens, TF-1, 3 h): 6.00 to 7.00

CCN1C(=O)[C@H](NC(=O)c2cccc(C(F)(F)F)c2)[C@H](C2CC2)c2c(C(=O)N(CC#N)C3CC3)nn(C3CCOCC3)c21 [Compound I-405]
pIC50 [1, 3]: 5.52 to 6.00 | IC50 [1, 4]: 1000 to 3000 nM | pIC50 ([2]; Homo sapiens, TF-1, 3 h): < 6.00

CCN1C(=O)[C@@H](NC(=O)c2nccc(C(F)(F)F)n2)[C@@H](c2ccc(F)cc2)c2c(CNC(=O)/C=C/C(=O)OC(C)(C)C)nn(-c3ccccc3)c21 [Compound I-408]
pIC50 [1, 3]: ≥ 6.70 | pIC50 [1, 5]: ≥ 6.70 | pIC50 ([2]; Homo sapiens, TF-1, 3 h): 6.00 to 7.00

CCN1C(=O)[C@H](NC(=O)c2cccc(C(F)(F)F)c2)[C@H](c2ccc(F)cc2)c2c([C@H](C)NC#N)nn(-c3ccccc3)c21 [Compound I-410]
pIC50 [1, 3]: 6.00 to 6.70 | IC50 [1, 4]: 1000 to 3000 nM | pIC50 ([2]; Homo sapiens, TF-1, 3 h): 6.00 to 7.00

CCN1C(=O)[C@@H](NC(=O)c2cccc(C(F)(F)F)c2)[C@@H](c2ccc(F)cc2)c2c([C@@H](C)NC#N)nn(C3CCOCC3)c21 [Compound I-412]
pIC50 [1, 3]: ≥ 6.70 | pIC50 [1, 5]: ≥ 6.70 | pIC50 ([2]; Homo sapiens, TF-1, 3 h): 6.00 to 7.00
